The results in this text go back to patent US20120207766A1, “INTRACELLULAR TOLL-LIKE RECEPTORS PATHWAYS AND AXONAL DEGENERATION” (priority 2009, published 2012).

Experiment [1] concerns MOG-myelitis. The experiment can be described thus: MOG peptide myelitis, neurological deficit scoring after systemic mianserin. The following applies: systemic administration; FIG. 12 panels B and C, n=8. The class given is in vivo, mice. How it is done:
Induction of MOG peptide myelitis, and clinical evaluation. MOG peptide myelitis is elicited in 3 month old male mice by subcutaneous flank administration of 300 μg of rodent MOG peptide 35-55 emulsified in CFA. The mice receive 75 ng of pertussis toxin intraperitoneally on days 0 and 2, and are weighed and scored daily for neurological deficits by 2 blinded observers. Neurological scoring is on a 5 point scale: limp tail or waddling gait=1; limp tail and waddling gait=2; single limb paresis and ataxia 2.5; double limb paresis=3; single limb paralysis and paresis of a second limb=3.5; full paralysis of 2 limbs=4; and death (or sacrifice owing to inanition=5) (Bannerman et al, Brain 128:1877-1886 2005; Bannerman et al., Glia 55:57-64 2008; and Soulika et al, J Neurosci 29:14965-14979 2009).
Mianserin treatment. Mice are induced with MOG-myelitis as described. Groups of mice initially receive intraperitoneally 1-10 mg/kg/day. The start day can vary between days 5-12 (before disease onset) and 14-20 (after disease onset). Peripheral T cell responses and CNS infiltration are analyzed by flow cytometry. […] The mice are perfused with 4% paraformaldehyde and sections from lumbar spinal cord arestained with various antibodies and analyzed by confocal microscopy. […]

The subject of experiment [2] is MOG-specific Th17 cell. Briefly: Peripheral T cell responses (Th17) by flow cytometry in MOG-myelitis mice. The class given is in vivo. The conditions noted are these: systemic administration; FIG. 12 panel A, each bar a single mouse. How it is done:
Mianserin treatment. Mice are induced with MOG-myelitis as described. Groups of mice initially receive intraperitoneally 1-10 mg/kg/day. The start day can vary between days 5-12 (before disease onset) and 14-20 (after disease onset). Peripheral T cell responses and CNS infiltration are analyzed by flow cytometry. Lumbar spinal cords are examined immunohistologically to characterize the degrees of axonal degeneration, secondary demyelination and CNS infiltration by peripheral immune cells during the various stages of MaG-myelitis. The mice are perfused with 4% paraformaldehyde and sections from lumbar spinal cord arestained with various antibodies and analyzed by confocal microscopy. In every step the degree of inflammation, axonal degeneration and demyelination is confirmed by using the following antibodies: CD11b (macrophages), CD3 (T cells), CD11c (dendritic cells), Glial fibrillary acidic protein (GFAP astroglia), Myelin Basic protein (MBP, for myelin), and SMI32 (hypophosphorylated NF—H, disrupted axons). To examine intracellular TLR and partner molecules antibodies against TLR3, 8 and 9, MyD88 and IRAK4, NALP1, ASC, active caspase-1, and IL-1 r3 are used.
Peripheral T cell responses. […]
Flow cytometry. […] Immunostained cells are analyzed using a Cyan FACS (Dako Cytomation).
A general note: In flow cytometry, cells or beads pass a laser one at a time.

In the case of `CN1CCN2c3ccccc3Cc3ccccc3C2C1` (centres unmarked) [mianserin], in experiment [1], the “neurological symptoms associated with MOG-myelitis” value is listed as “diminishes”. For the same compound, the “MOG-specific Th17 cell generation in the periphery” value in experiment [2] is “does not affect”.
